Data reported in patent US20060217340A1, “Methods and products for treating hypertension by modulation of TRPC3 channel activity” (University of Vermont and State Agricultural College, priority 2005, published 2006).

Assays:
cerebral artery SMCs = assay: Membrane potential recordings in pressurized cerebral arteries; format: cell-based, rat
Text: (§1) Oligodeoxynucleotide Sequences and Reverse Permeabilization. TRPC6 sense and antisense oligodeoxynucleotides (ODN's) were designed as previously described (Welsh et al 2002 Circ Res 90, 248-250) and were as follows: sense, 5′-[…]-3′ (SEQ ID: 3) and 5′-GCACACGCAGCCTCTTCAC-3′ (SEQ ID: 4) antisense, 5′-[…]-3′ (SEQ ID: 5) and 5′-[…]-3′ (SEQ ID: 6). TRPC3 sense and antisense ODN's were designed based on the rat TRPC3 gene (Ohki et al 2000 J Biol Chem 275: 39055-39060) and are as follows: sense, 5′-[…]-3′ (SEQ ID: 7) and 5′-[…]-3′ (SEQ ID: 8); anti-sense, 5′-[…]-3′ (SEQ ID: 9) and 5′-[…]-3′ (SEQ ID: 10). The last five bases on the 5′ and 3′ end were phosphorothioated in order to limit ODN degradation. For some experiments fluoroscein-isothiocyanate was conjugated to the 5′ end to allow for histological assessment of cellular uptake of the ODNs. All ODNs were synthesized and HPLC purified commercially by Qiagen (Alameda, Calif., USA). Sense and antisense ODN's (2 μM) were introduced into the arterial SMs using a reversible permeabilization procedure (Lesh et al 1995 Circ Res 77,220-230)). The arterial segments were then organ cultured for 3 days in D-MEM/F-12 culture media with L-glutamine (2 mM), penicillin (50 units/ml) and streptomycin (50 μg/ml) prior to use.
(§2) Diameter and membrane potential recordings. Endothelial cell denuded artery segments were mounted on glass pipettes in an arteriograph chamber (Living Systems, Burlington, Vt., USA), pressurized to 20 mmHg (with no flow), and superfused with warm (37° C.), gassed (95% 02/5% CO2) physiological saline solution (PSS) containing (in mM): 119 NaCl, 4.7 KCl, 24 NaHCO3, 0.2 KH2PO4, […], 1.2 MgSO4, 1.6 CaCl2, and 10.6 glucose, pH 7.4. In experiments using Ca^2+-free PSS, CaCl2 was omitted and 3 mM EGTA and 30 μM diltiazem added. In experiments with diacylglycerol induction, 300 μM of the diacylglycerol analogue OAG (1-oleyol-2-acetyl-sn-glycerol) was added. The endothelium was removed as previously described (Sun et al 1993 Endothelium 1, 115-122). To verify endothelial cell removal the arteries were pressurized to 60 mmHg and allowed to develop myogenic tone prior to exposing the vessels to 1 μM UTP. Absence of a dilation or biphasic constrictor response to 1 μM UTP indicated successful endothelial cell removal (Marelli 2001 Am J Physiol Heart Cir Physiol 281, H1759-H1766; Miyagi et al 1996 Br J Pharmacol 118, 847-856). Arterial diameter or membrane potential (Vm) of sense and anti-sense treated arteries was measured in the absence (control) or presence of UTP (concentration range: 0.1 to 10 μM). Membrane potential was measured by inserting a sharp glass electrode (≈100 MΩ resistance) containing 0.5M KCl into the vessel wall. The criteria for successful vascular smooth muscle cell impalement were: (1) a sharp negative Vm deflection on entry; (2) a stable potential for at least 1 minute after entry; and (3) a sharp positive Vm deflection upon removal. Measurements were made using an electrometer (World Precision Instruments) and the data were recorded via computer using Axotape and Dataq software. Arterial diameter was measured using a video dimension analyzer (IonOptix Corporation; Milton, Mass.).

[1] = system: pressurized rat cerebral arteries; assay: Arterial diameter recordings (constriction) in pressurized cerebral arteries; format: cell-based
Text: as §1
as §2, with “Arterial diameter or membrane potential (Vm) of sense and anti-sense treated arteries was measured in the absence (control) or presence of UTP (concentration range: 0.1 to 10 μM).” left out
Statistical analysis. Data are expressed as means±SEM, and n indicates the number of animals. Changes in arterial diameter were measured as a percent constriction calculated as follows: [formula]

[2] = system: pressurized rat cerebral arteries; assay: Arterial wall Ca2+ concentration measurement (FURA-2) in isolated arteries; format: cell-based; settings: for effect on arterial wall Ca2+ or vessel diameter: absence of extracellular Ca2+
Method: Diameter and membrane potential recordings. […] In experiments using Ca^2+-free PSS, CaCl2 was omitted and 3 mM EGTA and 30 μM diltiazem added. In experiments with diacylglycerol induction, 300 μM of the diacylglycerol analogue OAG (1-oleyol-2-acetyl-sn-glycerol) was added. […] To verify endothelial cell removal the arteries were pressurized to 60 mmHg and allowed to develop myogenic tone prior to exposing the vessels to 1 μM UTP. […] Arterial diameter or membrane potential (Vm) of sense and anti-sense treated arteries was measured in the absence (control) or presence of UTP (concentration range: 0.1 to 10 μM). Membrane potential was measured by inserting a sharp glass electrode (≈100 MΩ resistance) containing 0.5M KCl into the vessel wall. […] Measurements were made using an electrometer (World Precision Instruments) and the data were recorded via computer using Axotape and Dataq software. Arterial diameter was measured using a video dimension analyzer (IonOptix Corporation; Milton, Mass.).
Ca^2+ concentration measurement in isolated arteries. Mounted arteries were equilibrated in 1.6 m M PSS for 40 minutes at 37° C. (pH 7.4) prior to loading the vascular smooth muscle cells with the Ca^2+-sensitive fluorescent dye, FURA-2. To load the cells, the 1.6 mM PSS was gradually replaced over 5 minutes with HEPES solution (25° C., pH 7.4). A total of 40 μL of a premixed 100 μM FURA-2-acetoxymethyl ester solution (100 μg FURA-2, 200 μL Pluronic acid, 800 μL DMSO) was added directly to the HEPES to give a final concentration of 2 μM FURA-2 AM. Loading continued in the dark at 25° C. (pH 7.4) for 40 minutes. At the end of the loading period, the HEPES was replaced with 1.6 mM PSS (35° C., pH 7.4) and 30 minutes was allowed for complete de-esterification of the FURA-2 AM before [Ca^2+]c measurements were made. FURA-2 fluorescence was measured using a photomultiplier system (IonOptix Corporation; Milton, Mass., USA) in which background-corrected ratios of the 510-nm emission from arteries alternatively excited at 340 and 380 nm were obtained at a sampling rate of 5 Hz.

[3] = Gd3+ given prior to re-introduction of extracellular Ca2+
[4] = OAG, Sprague Dawley, WKY and SHR rats
[5] = 30 μM UTP in PSS, first exposure
[6] = in the presence of UTP, steady state
[7] = 1 μM nimodipine, extracellular Ca2+ re-introduced in the presence of UTP
[8] = 2 μM thapsigargin, presence of UTP, n=3

5′-GGAGTTCAGACTGGCTAGGG-3′ (SEQ ID: 5) and 5′-GCACACGCAGCCTCCTTCAC-3′ (SEQ ID: 6) (DNA, backbone not given here; further chemistry not fully specified) [TRPC6 antisense, TRPC6 antisense oligodeoxynucleotides designed as previously described (Welsh et al 2002)]
UTP-induced depolarization, TRPC6 antisense- versus sense-treated group (cerebral artery SMCs; exposure to UTP): no difference | magnitude of constriction ([1]; increasing concentrations of UTP): did not affect

[Gd+3] [Gd^3+]
effect on increase in arterial wall Ca2+ after Ca2+ return in the presence of UTP ([2]; 30 μM Gd3+, nimodipine present): reverses | arterial wall Ca2+ response to UTP [2, 3]: did not increase | effect on vasoconstriction after Ca2+ return in the presence of UTP ([1]; 30 μM Gd3+, nimodipine present): reverses | vasoconstriction in response to UTP [1, 3]: nor did vasoconstriction occur

CCCCCCCC/C=C\CCCCCCCC(=O)OC[C@H](CO)OC(C)=O [OAG, 1-oleoyl-2-acetyl-sn-glycerol]
increase in calcium concentration, arteries from SHR compared with normotensive rats [2, 4]: significantly larger increases | constriction of arteries from SHR compared with normotensive rats [1, 4]: significantly larger increases

O=c1ccn([C@@H]2O[C@H](COP(=O)(O)OP(=O)(O)OP(=O)(O)O)[C@@H](O)[C@H]2O)c(=O)[nH]1 [UTP, uridine triphosphate]
depolarization of arterial SMCs (cerebral artery SMCs; micromolar concentrations of UTP): approximately 20 mV | initial peak increase in arterial wall Ca2+ ([2]; 30 μM UTP in PSS containing Ca2+, n=8): 291 ± 45 nM | steady state arterial wall [Ca2+] [2, 5]: 145 ± 10 nM | effect on arterial wall Ca2+ or vessel diameter [2]: neither UTP (FIG. 11 and FIG. 12) nor caffeine (FIG. 11A) affected | arterial wall [Ca2+] in Ca2+ free PSS ([2]; continued presence of UTP): decline below the resting level | arterial wall Ca2+ after returning extracellular Ca2+ [2, 6]: 139 ± 15 nM | sustained decrease in lumen diameter [1, 5]: 49±4% | vessel response in Ca2+ free PSS ([1]; continued presence of UTP): completely relax | decrease in lumen diameter (vasoconstriction) after returning extracellular Ca2+ [1, 6]: 48±5%

Cn1c(=O)c2c(ncn2C)n(C)c1=O [caffeine]
peak [Ca2+]c ([2]; 10 mM caffeine, PSS containing Ca2+): 227 ± 42 nM | effect on arterial wall Ca2+ or vessel diameter [2]: neither UTP (FIG. 11 and FIG. 12) nor caffeine (FIG. 11A) affected | % constriction ([1]; 10 mM caffeine, PSS containing Ca2+, transient): 31±6%

COCCOC(=O)C1=C(C)NC(C)=C(C(=O)OC(C)C)C1c1cccc([N+](=O)[O-])c1 (stereo not shown) [nimodipine]
UTP-induced increase in arterial wall Ca2+ [2, 7]: 94 ± 10 nM | share of extracellular Ca2+ influx entering through the L-type Ca2+ channel ([2]; re-admission of Ca2+ in the presence of UTP): about 30% | UTP-induced vasoconstriction [1, 7]: 29±3%

C/C=C(/C)C(=O)O[C@H]1C(C)=C2[C@H]([C@@H]1OC(=O)CCCCCCC)[C@@](C)(OC(C)=O)C[C@H](OC(=O)CCC)[C@@]1(O)[C@H]2OC(=O)[C@@]1(C)O [thapsigargin]
arterial wall Ca2+ when extracellular Ca2+ reintroduced [2, 8]: 116 ± 29 nM | diameter decrease when extracellular Ca2+ reintroduced [1, 8]: 39±6%
